Data on 15 molecules can be found in patent publication US20230295200A1 (REGENTS OF THE UNIVERSITY OF MICHIGAN, priority 2022, published 2023).

Test [1] concerns the target T1, STAT5A (Homo sapiens, UniProt P42229).
T1 sequence (P42229 1-794): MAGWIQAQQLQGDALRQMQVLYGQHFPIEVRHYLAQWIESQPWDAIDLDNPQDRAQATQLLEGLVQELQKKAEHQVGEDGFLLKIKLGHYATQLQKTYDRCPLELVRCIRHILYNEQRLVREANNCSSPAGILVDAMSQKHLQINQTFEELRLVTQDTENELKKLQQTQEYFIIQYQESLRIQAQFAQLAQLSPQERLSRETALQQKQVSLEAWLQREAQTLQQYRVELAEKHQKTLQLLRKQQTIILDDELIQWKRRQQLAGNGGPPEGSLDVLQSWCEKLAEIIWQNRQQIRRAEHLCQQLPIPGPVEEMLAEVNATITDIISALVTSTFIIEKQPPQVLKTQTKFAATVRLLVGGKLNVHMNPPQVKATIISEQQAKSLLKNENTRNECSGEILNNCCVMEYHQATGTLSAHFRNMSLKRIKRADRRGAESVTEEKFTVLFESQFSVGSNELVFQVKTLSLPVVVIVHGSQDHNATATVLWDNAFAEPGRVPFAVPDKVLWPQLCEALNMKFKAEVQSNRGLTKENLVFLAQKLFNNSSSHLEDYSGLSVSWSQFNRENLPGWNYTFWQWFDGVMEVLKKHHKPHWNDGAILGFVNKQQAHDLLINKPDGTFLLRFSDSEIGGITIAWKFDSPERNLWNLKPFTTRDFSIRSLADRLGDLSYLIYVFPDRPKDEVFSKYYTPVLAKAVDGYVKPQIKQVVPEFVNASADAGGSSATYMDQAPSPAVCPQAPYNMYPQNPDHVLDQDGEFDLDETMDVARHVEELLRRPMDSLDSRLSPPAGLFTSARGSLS
The test is described as follows: Fluorescence polarization (FP) binding assay, STAT5A. The conditions noted are these: FP competition, 5 nM fluorescein-labeled tracer, 200 nM protein, PBS pH7.4. In outline:
(§1)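 Fluorescein-labelled tracer (5 nM) with 200 nM STAT5 and/or STAT6 protein in PBS pH 7.4, 0.01% BGG, 0.01% Tween-20, 2 mM DTT. Mixed 15 min, then equilibrated 1 h at room temperature; read by fluorescence polarization, constants from nonlinear curve fitting.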
Background: Fluorescence polarisation rises when a labelled molecule tumbles more slowly, as on binding a larger partner.

Test [2] concerns the target T2, STAT6 protein (Homo sapiens, UniProt P42226).
T2 sequence (P42226 1-847): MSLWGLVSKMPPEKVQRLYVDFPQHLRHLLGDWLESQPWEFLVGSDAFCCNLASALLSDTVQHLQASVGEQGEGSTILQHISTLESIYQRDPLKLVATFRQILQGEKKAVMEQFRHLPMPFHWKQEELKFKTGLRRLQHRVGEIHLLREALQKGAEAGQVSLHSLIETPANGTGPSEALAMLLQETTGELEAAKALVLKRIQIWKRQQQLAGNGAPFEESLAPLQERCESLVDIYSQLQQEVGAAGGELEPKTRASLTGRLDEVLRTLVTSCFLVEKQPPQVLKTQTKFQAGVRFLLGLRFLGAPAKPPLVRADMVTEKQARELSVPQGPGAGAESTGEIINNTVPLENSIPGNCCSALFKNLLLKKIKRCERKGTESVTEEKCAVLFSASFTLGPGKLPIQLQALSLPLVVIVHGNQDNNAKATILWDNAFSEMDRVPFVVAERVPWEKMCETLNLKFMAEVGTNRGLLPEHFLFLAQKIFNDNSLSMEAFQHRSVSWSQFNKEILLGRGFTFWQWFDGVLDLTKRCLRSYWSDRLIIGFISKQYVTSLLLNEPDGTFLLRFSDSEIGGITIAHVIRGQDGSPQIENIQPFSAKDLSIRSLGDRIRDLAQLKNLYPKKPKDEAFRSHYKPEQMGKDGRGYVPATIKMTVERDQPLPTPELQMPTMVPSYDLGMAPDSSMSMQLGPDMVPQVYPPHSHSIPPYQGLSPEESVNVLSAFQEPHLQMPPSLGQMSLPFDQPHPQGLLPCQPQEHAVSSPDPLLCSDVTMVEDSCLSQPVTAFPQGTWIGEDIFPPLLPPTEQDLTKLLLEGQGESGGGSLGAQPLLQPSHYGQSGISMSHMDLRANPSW
The experiment in a line: Fluorescence polarization (FP) binding assay, STAT6. As to conditions: FP competition, 5 nM fluorescein-labeled tracer, 200 nM protein, PBS pH7.4; read-out: Binding STAT6. Summed up: as §1

For the molecule `CCOC(=O)C1CCN(C(=O)[C@@H]2CCCN2C(=O)[C@@H](NC(=O)c2cc3cc(C(F)(F)P(=O)(O)O)ccc3s2)C(C)(C)C)CC1c1ccccc1` (stereo partly drawn) [Compound 115, ((2-(((2S)-1-((2S)-2-(4-(ethoxycarbonyl)-3-phenylpiperidine-1-carbonyl)pyrrolidin-1-yl)-3,3-dimethyl-1-oxobutan-2-yl)carbamoyl)benzo[b]thiophen-5-yl)difluoromethyl)phosphonic acid], the Ki in test [1] was more than 10000 nM; in test [2] it was 1000 to 10000 nM.
The matching figures for `CC(=O)N1CC[C@H]2CC[C@@H](C(=O)N3CCOC[C@@H]3c3ccccc3)N2C(=O)[C@@H](NC(=O)c2cc3cc(C(F)(F)P(=O)(O)O)ccc3s2)C1` [Compound 120, ((2-(((5S,8S,10aR)-3-acetyl-6-oxo-8-((S)-3-phenylmorpholine-4-carbonyl)decahydropyrrolo[1,2-a][1,5]diazocin-5-yl)carbamoyl)benzo[b]thiophen-5-yl)difluoromethyl)phosphonic acid]: more than 10000 nM and 1000 to 10000 nM.
The matching figures for `CC(=O)N1CC[C@H]2CC[C@@H](C(=O)N3CCOC[C@H]3c3ccccc3)N2C(=O)[C@@H](NC(=O)c2cc3cc(C(F)(F)P(=O)(O)O)ccc3s2)C1` [Compound 121, ((2-(((5S,8S,10aR)-3-acetyl-6-oxo-8-((R)-3-phenylmorpholine-4-carbonyl)decahydropyrrolo[1,2-a][1,5]diazocin-5-yl)carbamoyl)benzo[b]thiophen-5-yl)difluoromethyl)phosphonic acid]: more than 10000 nM and 1000 to 10000 nM.
As to `CC(=O)NC(C)(C)[C@H](NC(=O)c1cc2cc(C(F)(F)P(=O)(O)O)ccc2s1)C(=O)N1CCC[C@H]1C(=O)N1CCO[C@H](c2ccccc2)C1` [Compound 122, ((2-(((S)-3-acetamido-3-methyl-1-oxo-1-((S)-2-((R)-2-phenylmorpholine-4-carbonyl)pyrrolidin-1-yl)butan-2-yl)carbamoyl)benzo[b]thiophen-5-yl)difluoromethyl)phosphonic acid], the Ki in test [1] is more than 10000 nM; in test [2], 100 to 1000 nM.
On the same counts, the results for `CC(C)(C)[C@H](NC(=O)c1cc2cc(C(F)(F)P(=O)(O)O)ccc2s1)C(=O)N1CCC[C@H]1C(=O)N1CCC(C(=O)O)C(c2ccccc2)C1` (stereo partly drawn) [Compound 123, 1-(((S)-2-(5-(difluoro(phosphono)methyl)benzo [b]thiophene-2-carboxamido)-3,3-dimethylbutanoyl)-L-prolyl)-3-phenylpiperidine-4-carboxylic acid] are more than 10000 nM and 1000 to 10000 nM.
On to `CC(C)(C)[C@H](NC(=O)c1cc2cc(C(F)(F)P(=O)(O)O)ccc2s1)C(=O)N1CCC[C@H]1C(=O)N1CCCOC(c2ccccc2)C1` (stereo partly drawn) [Compound 124, ((2-(((2S)-3,3-dimethyl-1-oxo-1-((2S)-2-(2-phenyl-1,4-oxazepane-4-carbonyl)pyrrolidin-1-yl)butan-2-yl)carbamoyl)benzo[b]thiophen-5-yl)difluoromethyl)phosphonic acid], for which the results for the Ki in test [1] and in test [2] were 1000 to 10000 nM and 100 to 1000 nM, respectively.
On the same counts, the results for `CC(C)(C)[C@H](NC(=O)c1cc2cc(C(F)(F)P(=O)(O)O)ccc2s1)C(=O)N1CCC[C@H]1C(=O)N1CCCCC(c2ccccc2)C1` (stereo partly drawn) [Compound 125, ((2-(((2S)-3,3-dimethyl-1-oxo-1-((2S)-2-(3-phenylazepane-1-carbonyl)pyrrolidin-1-yl)butan-2-yl)carbamoyl)benzo[b]thiophen-5-yl)difluoromethyl)phosphonic acid] are 1000 to 10000 nM and 100 to 1000 nM.
As to `CC1COC(c2ccccc2)CN1C(=O)[C@@H]1CCCN1C(=O)[C@@H](NC(=O)c1cc2cc(C(F)(F)P(=O)(O)O)ccc2s1)C(C)(C)C` (stereo partly drawn) [Compound 126, ((2-(((2S)-3,3-dimethyl-1-((2S)-2-(5-methyl-2-phenylmorpholine-4-carbonyl)pyrrolidin-1-yl)-1-oxobutan-2-yl)carbamoyl)benzo[b]thiophen-5-yl)difluoromethyl)phosphonic acid], the Ki lay in the range of 1000 to 10000 nM in test [1] and 100 to 1000 nM in test [2].
The matching figures for `CC(C)(C)[C@H](NC(=O)c1cc2cc(C(F)(F)P(=O)(O)O)ccc2s1)C(=O)N1CCC[C@H]1C(=O)N1CCOC(c2cccs2)C1` (stereo partly drawn) [Compound 127, ((2-(((2S)-3,3-dimethyl-1-oxo-1-((2S)-2-(2-(thiophen-2-yl)morpholine-4-carbonyl)pyrrolidin-1-yl)butan-2-yl)carbamoyl)benzo[b]thiophen-5-yl)difluoromethyl)phosphonic acid]: 1000 to 10000 nM and 100 to 1000 nM.
The matching figures for `CC(C)(C)[C@H](NC(=O)c1cc2cc(C(F)(F)P(=O)(O)O)ccc2s1)C(=O)N1CCC[C@H]1C(=O)N1CCOC(c2nccs2)C1` (stereo partly drawn) [Compound 128, ((2-(((2S)-3,3-dimethyl-1-oxo-1-((2S)-2-(2-(thiazol-2-yl)morpholine-4-carbonyl)pyrrolidin-1-yl)butan-2-yl)carbamoyl)benzo[b]thiophen-5-yl)difluoromethyl)phosphonic acid]: more than 10000 nM and 1000 to 10000 nM.
On the same counts, the results for `CC(C)(C)[C@H](NC(=O)c1cc2cc(C(F)(F)P(=O)(O)O)ccc2s1)C(=O)N1CCC[C@H]1C(=O)N1CCOC(c2cccc3ccccc23)C1` (stereo partly drawn) [Compound 129, ((2-(((2S)-3,3-dimethyl-1-((2S)-2-(2-(naphthalen-1-yl)morpholine-4-carbonyl)pyrrolidin-1-yl)-1-oxobutan-2-yl)carbamoyl)benzo[b]thiophen-5-yl)difluoromethyl)phosphonic acid] are 1000 to 10000 nM and 100 to 1000 nM.
On to `CC(C)(C)[C@H](NC(=O)c1cc2cc(C(F)(F)P(=O)(O)O)ccc2s1)C(=O)N1CCC[C@H]1C(=O)N1CCOC(c2cccnc2)C1` (stereo partly drawn) [Compound 130, ((2-(((2S)-3,3-dimethyl-1-oxo-1-((2S)-2-(2-(pyridin-3-yl)morpholine-4-carbonyl)pyrrolidin-1-yl)butan-2-yl)carbamoyl)benzo[b]thiophen-5-yl)difluoromethyl)phosphonic acid], for which the Ki in test [1] is more than 10000 nM; in test [2], 100 to 1000 nM.
On to `CC(C)(C)[C@H](NC(=O)c1cc2cc(C(F)(F)P(=O)(O)O)ccc2s1)C(=O)N1CCC[C@H]1C(=O)N1CCOC(c2ccncc2)C1` (stereo partly drawn) [Compound 131, ((2-(((2S)-3,3-dimethyl-1-oxo-1-((2S)-2-(2-(pyridin-4-yl)morpholine-4-carbonyl)pyrrolidin-1-yl)butan-2-yl)carbamoyl)benzo[b]thiophen-5-yl)difluoromethyl)phosphonic acid], for which the Ki in test [1] was more than 10000 nM; in test [2] it was 1000 to 10000 nM.
On the same counts, the results for `CC(C)(C)[C@H](NC(=O)c1cc2cc(C(F)(F)P(=O)(O)O)ccc2s1)C(=O)N1CCC[C@H]1C(=O)N1CCSC(c2ccccc2)C1` (stereo partly drawn) [Compound 132, ((2-(((2S)-3,3-dimethyl-1-oxo-1-((2S)-2-(2-phenylthiomorpholine-4-carbonyl)pyrrolidin-1-yl)butan-2-yl)carbamoyl)benzo[b]thiophen-5-yl)difluoromethyl)phosphonic acid] are 100 to 1000 nM and 100 to 1000 nM.
On the same counts, the results for `CC(C)(C)[C@H](NC(=O)c1cc2cc(C(F)(F)P(=O)(O)O)ccc2s1)C(=O)N1CCC[C@H]1C(=O)N1CCOC(Cc2ccccc2)C1` (stereo partly drawn) [Compound 133, ((2-(((2S)-1-((2S)-2-(2-benzylmorpholine-4-carbonyl)pyrrolidin-1-yl)-3,3-dimethyl-1-oxobutan-2-yl)carbamoyl)benzo[b]thiophen-5-yl)difluoromethyl)phosphonic acid] are more than 10000 nM and 1000 to 10000 nM.
